The text below walks through data of patent US20050234113A1, “Antioxidant and radical scavenging activity of synthetic analogs of desferrithiocin” (University of Florida Research Foundation, Inc., priority 2002, published 2005).

Several values for one entry are separate records, joined by “and”; a condition that tells them apart may be missing. Identical values can stand only once. Entries after “also recorded” stand apart in the source; their conditions may differ.

A short description of test [1]: Quenching of the ABTS radical cation. How it is done: The iron chelators were tested for their ability to quench the radical cation formed from 2,2′-azinobis(3-ethylbenzothiazoline-6-sulfonic acid) (ABTS) by the method of Re et al. in Free Radic. Biol. Med. 26, 1231-1237 (1999). Briefly, a stock solution of ABTS radical cation was generated by mixing ABTS (10 mM, 2.10 mL) with K2S2O8 (8.17 mM, 0.90 mL) in H2O and […] deep blue-green ABTS radical cation was diluted in sufficient sodium phosphate (10 mM, pH 7.4) to give an A734 of about 0.900. Test compounds were added to a final concentration ranging from 1.25 to 15 μM, and the decrease in A734 was read after 1, 2, 4 and 6 min. The reaction was largely complete by 1 min, but the data presented are based on a 6-min reaction time.
In this assay, a fairly stable radical cation, ABTS^+, was examined, and Trolox, an analog of vitamin E, was used as a positive control. Briefly, the procedure involved generating the blue-green chromophore by the reaction of ABTS with K2S2O8. The radical has absorption maxima at λ=415, 645, 734, and 815 nm. The change in absorbance at 734 nm was noted 6 min after addition of the chelator of interest at various concentrations, and the slope of the ΔA734 vs. ligand concentration line was calculated.
The iron chelators were tested for their ability to quench the radical cation formed from 2,2′-azinobis(3-ethylbenzothiazoline-6-sulfonic acid) (ABTS) by a published method (Re, R., et al., Free Radical Biol. Med. 26:1231-1237 (1999). Briefly, a stock solution of ABTS radical cation was generated by mixing ABTS (10 mM, 2.10 mL) with K2S2O8 (8.17 mM, 0.90 mL) in H2O and allowing the solution to sit in the dark at room temperature for 18 hours. This stock solution of deep blue-green ABTS radical cation was diluted in sufficient sodium phosphate (10 mM, pH 7.4) to give an A734 of about 0.900. Test compounds were added to a final concentration ranging from 1.25 to 15 μM, and the decrease in A734 was read after 1, 2, 4 and 6 min. The reaction was largely complete by 1 min, but the data presented are based on a 6-min. reaction time.
This radical cation decolorization assay utilizes the pre-formed radical monocation of 2,2′-azinobis(3-ethylbenzothiazoline-6-sulfonic acid) (ABTS) and has been used to evaluate the antioxidant capacity of a large number of compounds and mixtures. Briefly, the change in absorbance of the blue-green chromophore was recorded after the addition of the chelator of interest at each of the different concentrations, and the slope of the ΔA734 vs. ligand concentration line was calculated. The positive control for this reaction was Trolox, an analogue of vitamin E. The decrease in A734 as a function of ligand concentration is the comparitor among the five compounds evaluated. Trolox, L1, DFO, (S)-4′-(HO)-DADMDFT and BDU (Table 3). All four of the iron chelators performed better than Trolox; DFO≈BDU>(S)-4′-(HO)-DADMDFT>L1>Trolox. Thus, all of these ligands could be expected to serve as excellent radical scavengers.

The subject of test [2] is iron. Briefly: Iron clearance in the iron-overloaded Cebus apella monkey. The class given is in vivo. To be noted: as sodium salt. How it is done:
The monkeys were iron overloaded with intravenous iron dextran to provide about 500 mg iron per kg body weight. The serum transferrin iron saturation rose to between 70 and 80%. At least twenty half-lives, sixty days, elapsed before any of the animals were used in experiments evaluating iron-chelating agents.
Fecal and urine samples were collected at 24 hour intervals and processed. Briefly, the collections began 4 days prior to the administration of the test drug and continued for an additional 5 days after the drug was given. Iron concentrations were determined by flame atomic absorption spectroscopy.
(§1) The iron chelators were solubilized in 40% Cremophor RH-40/water (v/v) and given orally and subcutaneously to the rats at the doses shown in Table 4. In the primates, DFO was dissolved in sterile H2O at a concentration of 50 or 100 mg/mL and given orally or subcutaneously at a volume of 1 ml/kg. The desferrithiocin analogues were solubilized in 40% Cremophor RH-40/water (v/v) and given orally to the monkeys at the doses shown in Table 4. However, the desferrithiocin analogues were administered subcutaneously as either a suspension in distilled H2O or as their sodium salts in solution as indicated in Table 4.
(§2) Iron clearance studies were carried out both in the non iron-overloaded, bile duct-cannulated rodent model and in the iron-overloaded Cebus apella monkey, and the results are reported as iron clearing efficiency (Table 4). This number is generated by dividing the net iron clearance [total iron excretion (bile or stool plus urine) minus background] by the theoretical iron clearance and multiplying by 100. The theoretical iron clearance is based on a 2:1 metal complex stoichiometry for 4′-(HO)-DADMDFT, a 1:1 stoichiometry for DFO, and a 1:1 stoichiometry for BDU, as shown in the Job's plot (FIG. 5). Data are presented as the mean±the standard error of the mean. The drugs were administered both orally (po) and subcutaneously (sc) to the rodents and primates; the positive control was DFO.

The test system of test [3] is iron. Briefly: Iron clearance in the non iron-overloaded, bile duct-cannulated rodent model. The format is in vivo, Sprague-Dawley rats. How it is done:
Briefly, male Sprague-Dawley rats averaging 450 g were housed in Nalgene plastic metabolic cages during the experimental period and given free access to water. The animals were anesthetized using sodium pentobarbital (55 mg/kg) administered intraperitoneally. The bile duct was cannulated using 22-gauge polyethylene tubing. The cannula was inserted into the duct about 1 cm from the duodenum and tied snugly in place. After threading through the shoulder, the cannula was passed from the rat to the swivel inside a metal torque-transmitting tether, which was attached to a rodent jacket around the animal's chest. The cannula was directed from the rat to a Gilson microfraction collector (Middleton, Wis.) by a fluid swivel mounted above the metabolic cage. Bile samples were collected at 3 hour intervals for 24 hours. The urine sample was taken at 24 hours and handling was as previously described. (Bergeron, R. J., et al., J. Med. Chem. 34:2072-2078 (1991).
as §1, §2

Test [4] is described as follows: Prevention of iron-mediated oxidation of ascorbate (ascorbate-mediated reduction of Fe(III)). To be noted: ascorbate 100 μM, FeCl3 30 μM, pH 7.4, ligand/Fe ratios 0-3, 40 min. How it is done:
(§3) The iron chelators were tested for their ability to diminish the iron-mediated oxidation of ascorbate by the method of Dean and Nicholson (Free Radical Res. 20, 83-101 (1994)). Briefly, a solution of freshly prepared ascorbate (100 μM) in sodium phosphate buffer (5 mM, pH 7.4) was incubated in the presence of FeCl3 (30 μM) and chelator (ligand/Fe ratios varied from 0-3) for 40 min. The A265 was read at 10 and 40 min; the ΔA265 in the presence of ligand was compared to that in its absence.
The role of chelators in either inhibition or promotion of the Fenton reaction is related to their capacity to prevent Fe(III) from being reduced to Fe(II). Fe(II) is required for the reduction of H2O2 to HO. and HO^−. The assay involves spectrophotometrically monitoring the disappearance of ascorbate at pH 7.4 in the presence of FeCl3 and chelator at several ligand/Fe ratios. Under these conditions, ascorbate is oxidized to an L-ascorbyl radical anion. This anion then disproportionates to dehydroascorbic acid and ascorbate.
as §3, with “chelators nitrilotriacetic acid (NTA), 1,2-dimethyl-3-hydroxypyridin-4-one (L1), desferrioxamine B (DFO), (S)-4′-(HO)-DADMDFT, and (S,S)-1,11-Bis[5-(4-carboxyl-4,5-dihydro-1,3-thiazol-2-yl)-2,4-dihydroxyphenyl]-4,8-dioxaundecane (BDU)” for “chelators”, “Nicholson, Free” for “Nicholson (Free”, “20:” for “20,”, “(1994).” for “(1994)).”
The measurement examines the disappearance of ascorbate. It is known that DFO, a hydroxamate chelator that forms a 1:1 complex with Fe(III) at a formation constant of approximately 10^31 M^−1, prevents ascorbate-mediated reduction of Fe(III); it serves as a positive control in the present study. Both NTA and L1 promote ascorbate-mediated reduction of Fe(III) and serve as negative controls.

Where [5] appears, read: Table 1, A734, six-minute reaction, pH 7.4, 1.25 to 15 μM.

Take `O=C(O)[C@H]1CSC(c2cc(CCCOCCCOCCCc3cc(C4=N[C@@H](C(=O)O)CS4)c(O)cc3O)c(O)cc2O)=N1` [BDU, (S,S)-1,11-Bis[5-(4-carboxyl-4,5-dihydro-1,3-thiazol-2-yl)-2,4-dihydroxyphenyl]-4,8-dioxaundecane]: the “Slope × 10^3 OD units/μM (ABTS radical cation quenching)” value (from here on “Slope × 10^3 OD units/μM”) in test [1] (Table 3, A734, 6-min reaction, values marked b are the inventors' unpublished results) is recorded as −136 × 10^3 OD units/μM. In the test with iron [2] (75 μmol/kg sc), the “% stool (of iron excreted), monkeys” value is reported as 98%; the “% urine (of iron excreted), monkeys” value is reported as 2%; the “efficiency in monkeys (%)” value is 3.2±1.8% and 3.2 ± 1.8^g %. In the test on iron [2] (150 μmol/kg sc, n = 3), the “% urine (of iron excreted), monkeys” value amounted to 0%; the “efficiency in monkeys (%)” value is 2.1±1.4% and 2.1 ± 1.4^g,h %. In the test on iron [3] (150 μmol/kg po), the “% bile (of iron excreted), rodents” value is on record as 80%; the “% urine (of iron excreted), rodents” value is recorded as 20%; the “efficiency in rodents (%)” value is reported as 0.9±0.4%. Also, in the test with iron [3] (150 μmol/kg sc), the “% bile (of iron excreted), rodents” value is 95%; the “% urine (of iron excreted), rodents” value came to 5%; the “efficiency in rodents (%)” value was found to be 6.5±2.0%. Also, the “effect on ascorbate-mediated reduction of Fe(III) (in words)” value (“effect on ascorbate-mediated reduction” below) in test [4] is recorded as “significant protection”.
Consider `Nc1ccc(O)c(C(=O)O)c1` [Compound 5-ASA, 5-aminosalicylic acid], for which the “Slope × 10^3 OD units/μM” value in test [1] (setting [5]) is −34.4 × 10^3 OD units/μM. For the same compound, the figures for the “effect on ascorbate-mediated reduction” value in test [4] and in test [4] (listed as 5-aminosalicylic acid) were “promoted ascorbate-mediated reduction of Fe(III)” and “increased the rate of iron(III) reduction”, respectively.
`C[C@]1(C(=O)O)CSC(c2ccccc2O)=N1` [DADFT]: in test [1] (setting [5]), the “Slope × 10^3 OD units/μM” value is given as −25.1 × 10^3 OD units/μM.
For `O=C(O)C1CSC(c2ccccc2O)=N1` (stereo not drawn) [DADMDFT, desazadesmethyldesferrithiocin], the “Slope × 10^3 OD units/μM” value in test [1] (setting [5]) was −28.1 × 10^3 OD units/μM.
Regarding `O=C(O)CN(CC(=O)O)CC(=O)O` [NTA, nitrilotriacetic acid], the “effect on ascorbate-mediated reduction” value is listed as “profoundly stimulatory effect; also recorded: promoted ascorbate-mediated reduction of Fe(III)” in test [4] and “increased the rate of iron(III) reduction” in test [4] (listed as nitrilotriacetic acid).
As for `COCCOCCOCCN(O)C(C)=O` [decyl hydroxamate, N-hydroxy,N-(3,6,9-trioxadecyl)acetamide], the “effect on ascorbate-mediated reduction” value in test [4] is listed as “increased the rate of iron(III) reduction”.
